Reference: patent publication US20260315431A1, “NANOMATERIAL ENCAPSULATED BIOFILM INHIBITORS FOR DENTAL CARIES TREATMENT” (THE UAB RESEARCH FOUNDATION, priority 2023, published 2026)
Entries after “also recorded” stand apart in the source; their conditions may differ. Read-outs that look alike come from different tables or passages of the source.

How the values were obtained:
[1] = tested on: S. mutans UA159 biofilms; assay: Fluorescence microscopy of S. mutans UA159 biofilms (Syto-9, Cascade Blue-dextran, propidium iodide); format: cell-based, Streptococcus mutans; settings: 16 h
Method: FIGS. 1.6A-E illustrate the biofilm inhibitory activities of compound HA5. FIG. 1.6A illustrates that S. mutans UA159 were co-incubated with HA5 at various concentrations and biofilm formation was measured at OD562 using the crystal violet protocol. FIG. 1.6B illustrates Gtfs precipitated from S. mutans culture were co-incubated with HA5 at various concentrations and the glucan production was quantified using cascade blue staining and subsequent image processing with ImageJ. FIG. 1.6C illustrates representative fluorescence microscopy images of UA159 biofilms after 16 h of treatment with various concentrations of HA5. Bacterial cells were stained with Syto-9 (green, panel I); glucans were stained with Cascade Blue-dextran conjugated dye (blue, panel II); eDNA was stained with propidium iodide (red, panel III) and a merged image of all three staining images (panel IV). FIG. 1.6D illustrates S. mutans UA159, S. gordonii DL1 and S. sanguinis SK36 were co-incubated with HA5 at 50 μM and 100 μM and their growth were measured at OD470. FIG. 1.6E illustrates the chemical structure of HA5. Each of the biofilm, glucan and growth assays were conducted in triplicate and statistical significance was tested with one-way ANOVA. p<0.0001. […]
HA5 inhibits S. mutans UA159 biofilms, glucan production and eDNA levels. The antibiofilm activities of HA5 were further investigated by fluorescence microscopy imaging. […] In addition, propidium iodide was used to determine the presence of extracellular DNA (eDNA) in S. mutans biofilms. […] These findings reaffirm that HA5 inhibited S. mutans biofilms by preventing the synthesis of glucans and minimizing the presence of eDNA, two integral biofilm matrix elements crucial for S. mutans biofilm formation.
In addition, propidium iodide was used to determine the presence of extracellular DNA (eDNA) in S. mutans biofilms. […] These findings reaffirm that compound HA6 inhibited S. mutans biofilms by preventing the synthesis of glucans and minimizing the presence of eDNA, two integral biofilm matrix elements crucial for S. mutans biofilm formation.
Prior to in vivo evaluations, the biofilm inhibitory activities of PEHA5 were investigated. […] In addition, propidium iodide was used to determine the presence of eDNA in S. mutans biofilms. […] The effects of unloaded polymersome vesicles on S. mutans biofilm were compared with the control (1% DMSO) and the biofilm inhibitory activities of PEHA5 and HA5 at a single dose 50 μM concentration. […] In addition, the effect of PEHA5 on the planktonic growth of two commensal Streptococci, S. gordonii and S. Sanguinis were compared with the control (1% DMSO) and HA5 at a single treatment dose of 50 μM.
The biofilm inhibitory activities of PEHA6 were investigated. […] In addition, propidium iodide was used to determine the presence of eDNA in S. mutans biofilms. […] The effects of PEHA6 on S. mutans biofilm were compared with the control (1% DMSO) and the biofilm inhibitory activities of HA5 and HA6 side by side at a single dose, 50 μM concentration. […] In addition, the effect of PEHA6 on the planktonic growth of S. mutans was compared with HA5, HA6 at 50 μM.

[2] = tested on: S. sanguinis SK36; assay: Commensal biofilm inhibition, S. sanguinis SK36 (crystal violet, OD562); format: cell-based, Streptococcus sanguinis; settings: 25 μM
Method: (§1) The bacterial strains, S. mutans UA159, S. gordonii DL1, and S. sanguinis SK36 were inoculated statically at 37° C. under 5% CO2 in Todd Hewitt Broth (THB) for 24 h. The cultures were then diluted with fresh THB (1:5) and reinoculated until optical density at 470 nm (OD470) reached 1. The optical density was read using BioTek 800TS microplate reader at 470 nm for bacterial growth and 562 nm for biofilm stained with crystal violet. Data was plotted in Graphpad Prism9.
Biofilm inhibition assays. Biofilm inhibition assays were performed in polystyrene microtiter 96 well plates. […] After reading optical density for bacterial growth, the plate was gently washed with water, dried, and stained with crystal violet, and then gently rinsed again with deionized water leaving the stained biofilm at the bottoms of the wells. Biofilms was dissolved in 200 μL of 30% acetic acid and absorbance at 562 nm was used read to determine biofilm biomass. […] Biofilm inhibitory concentration (IC50) of the compounds was determined by serial dilutions.
All bacterial strains (S. mutans UA159, S. gordonii DL1, and S. sanguinis SK36) were inoculated statically at 37° C. under 5% CO2 environment in Todd Hewitt Broth (THB) for 24 h^[61]. […] The optical density was read using BioTek 800 TS absorbance reader at 470 nm for bacterial growth and 562 nm for biofilm stained with crystal violet. […]

[3] = tested on: S. mutans UA159; assay: Biofilm inhibition, S. mutans UA159 (crystal violet, OD562); format: cell-based, Streptococcus mutans; settings: for inhibition at 50 µM: UA159, 50 μM
Method: as §1
Biofilm inhibition assays. Biofilm inhibition assays were performed in polystyrene microtiter 96 well plates. Stock solutions were prepared in chemically defined medium (CDM, JRH Biosciences, Lenexa, KS) with 2% sucrose, 1% bacteria cultures and various concentrations of the small molecule inhibitors to examine their activity against biofilm formation as described^69, 70. These stocks were assayed in 96 well plates in triplicate and incubated at 37° C. and 5% CO2 for 16 h. After reading optical density for bacterial growth, the plate was gently washed with water, dried, and stained with crystal violet, and then gently rinsed again with deionized water leaving the stained biofilm at the bottoms of the wells. Biofilms was dissolved in 200 μL of 30% acetic acid and absorbance at 562 nm was used read to determine biofilm biomass. Each assay was carried out at least in triplicate. Biofilm inhibitory concentration (IC50) of the compounds was determined by serial dilutions.
All bacterial strains (S. mutans UA159, S. gordonii DL1, and S. sanguinis SK36) were inoculated statically at 37° C. under 5% CO2 environment in Todd Hewitt Broth (THB) for 24 h^[61]. The cultures were then diluted with fresh THB (1:5) and reinoculated until the optical density at 470 nm reaches 1. The optical density was read using BioTek 800 TS absorbance reader at 470 nm for bacterial growth and 562 nm for biofilm stained with crystal violet. Data was plotted in Prism 10.0.2.
Biofilm inhibition assays were performed in polystyrene microtiter 96-well plates. Stock solutions were prepared in chemically defined medium (CDM) with 1% sucrose, 1% bacteria cultures and various concentrations of the small molecule inhibitors to examine their activity against biofilm formation as described^[62, 63]. These stocks were assayed in 96 well plates in triplicate and incubated at 37° C. and 5% CO2 for 16 h. After reading optical density for bacterial growth, the plate was washed, dried, and stained with 0.1% crystal violet which was again rinsed well with deionized water leaving the stained biofilm at the bottoms of the wells. This biofilm was dissolved in 200 μL of 30% acetic acid and absorbance at 562 nm was read to determine amount of biofilm formation. Each assay was carried out at least in triplicate. Biofilm inhibitor concentration (IC50) of the compounds was determined by serial dilutions from 0 μM-50 μM (1% DMSO).

[4] = Streptococcus mutans, UA159, read-out: Biofilm IC50
[5] = Streptococcus mutans, S. mutans UA159 biofilm, read-out: Biofilm IC50

SMILES	Syto-9 stained bacterial cells within biofilms ([1]; 15 μM)	eDNA (propidium iodide) ([1]; 15 μM)	glucans (Cascade Blue-dextran) ([1]; 15 μM)	Syto-9 stained bacterial cells within biofilms ([1]; 30 μM)	eDNA (propidium iodide) ([1]; 30 μM)	glucans (Cascade Blue-dextran) ([1]; 30 μM)	S. sanguinis biofilm [2]	inhibition at 50 µM ([3]; Streptococcus mutans) [%]	IC50 [3, 4] [µM]	IC50 [3, 5] [µM]	Syto-9 stained bacterial cells within biofilms ([1]; 5 μM)	eDNA (propidium iodide) ([1]; 5 μM)	glucans (Cascade Blue-dextran) ([1]; 5 μM)	Syto-9 stained bacterial cells within biofilms ([1]; 50 μM)	eDNA (propidium iodide) ([1]; 50 μM)	glucans (Cascade Blue-dextran) ([1]; 50 μM)	S. mutans biofilm inhibition ([3]; 25 μM) [%]	inhibition at 25 µM ([3]; Streptococcus mutans, UA159, read-out: S. mutans biofilm inhibition, 25 μM) [%]
O=C1/C(=C/c2cc(O)c(O)c(O)c2)Oc2ccccc21 [HA6, 2-[(3′,4′,5′-Trihydroxyphenyl)methylidene]-2,3-dihydro-1-benzofuran-3-one]	significant reduction in biofilms	noticeable reduction of eDNA	significantly reduced	complete inhibition	almost complete absence of eDNA	no glucan formation was evident	did not significantly reduce the biofilms	> 95	18.9	18.9	–	–	–	–	–	–	–	–
O=C1/C(=C/c2cc(O)c(O)cc2O)Oc2ccccc21 [HA5, 2-[(2′,4′,5′-Trihydroxyphenyl)methylidene]-2,3-dihydro-1-benzofuran-3-one]	–	–	–	–	–	–	did not significantly reduce; also recorded: minimal	> 95	6.42	6.42	significant reduction in biofilms	noticeable reduction of eDNA	significantly reduced	complete inhibition	almost complete absence of eDNA	no glucan formation was evident	90	80
